Experimental data: ChEMBL document CHEMBL2177072, “Design and synthesis of β-site amyloid precursor protein cleaving enzyme (BACE1) inhibitors with in vivo brain reduction of β-amyloid peptides” (J Med Chem, 2012)

Legend:
in vitro [1] = settings: rat, hepatocytes
physchem [2] = experiment: physchem
physchem [3] = experiment: physchem; remark: listed apart in the source
Description: Lipophilicity, log D of the compound by RP-HPLC analysis

Beta-secretase 1 [4] = biological target: T1, Beta-secretase 1 (Homo sapiens, UniProt P56817); format: cell-based, SH-SY5Y
Beta-secretase 1 [5] = biological target: T1, Beta-secretase 1
in vitro [6] = settings: human, Caco-2
Description: Efflux ratio of apparent permeability from basal to apical to apical to basal side of human Caco2 cells at 10 uM after 60 mins by LC/MS analysis

[7] = biological target: Voltage-gated inwardly rectifying potassium channel KCNH2 (Homo sapiens, UniProt Q12809)
Description: Inhibition of human ERG expressed in CHO cells by IonWorks assay

in vitro [8] = settings: human, Caco-2; remark: listed apart in the source
Description: Apparent permeability from apical to basal side of human Caco2 cells at 10 uM after 60 mins by LC/MS analysis

Beta-secretase 1 [9] = biological target: Beta-secretase 1 (Mus musculus, UniProt P56818)
Description: Inhibition of BACE1-mediated amyloid beta 40 release in C57/BL6 mouse primary cortical neurons after overnight incubation by ELISA

Beta-secretase 2 = biological target: T2, Beta-secretase 2 (Homo sapiens, UniProt Q9Y5Z0)
T2 sequence (Q9Y5Z0 whole entry): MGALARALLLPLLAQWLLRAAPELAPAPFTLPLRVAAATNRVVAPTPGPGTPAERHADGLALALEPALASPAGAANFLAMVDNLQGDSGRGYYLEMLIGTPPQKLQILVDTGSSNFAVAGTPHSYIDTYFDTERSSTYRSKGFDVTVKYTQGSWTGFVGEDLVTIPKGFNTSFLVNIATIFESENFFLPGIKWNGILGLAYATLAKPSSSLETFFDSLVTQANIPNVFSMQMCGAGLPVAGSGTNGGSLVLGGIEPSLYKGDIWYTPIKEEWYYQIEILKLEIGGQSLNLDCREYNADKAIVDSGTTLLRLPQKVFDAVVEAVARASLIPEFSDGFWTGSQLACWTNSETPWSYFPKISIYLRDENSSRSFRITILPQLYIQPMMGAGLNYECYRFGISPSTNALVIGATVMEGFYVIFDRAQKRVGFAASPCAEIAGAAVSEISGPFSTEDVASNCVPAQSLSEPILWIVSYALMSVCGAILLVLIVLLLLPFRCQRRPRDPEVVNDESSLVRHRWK

T1 sequence (P56817 whole entry): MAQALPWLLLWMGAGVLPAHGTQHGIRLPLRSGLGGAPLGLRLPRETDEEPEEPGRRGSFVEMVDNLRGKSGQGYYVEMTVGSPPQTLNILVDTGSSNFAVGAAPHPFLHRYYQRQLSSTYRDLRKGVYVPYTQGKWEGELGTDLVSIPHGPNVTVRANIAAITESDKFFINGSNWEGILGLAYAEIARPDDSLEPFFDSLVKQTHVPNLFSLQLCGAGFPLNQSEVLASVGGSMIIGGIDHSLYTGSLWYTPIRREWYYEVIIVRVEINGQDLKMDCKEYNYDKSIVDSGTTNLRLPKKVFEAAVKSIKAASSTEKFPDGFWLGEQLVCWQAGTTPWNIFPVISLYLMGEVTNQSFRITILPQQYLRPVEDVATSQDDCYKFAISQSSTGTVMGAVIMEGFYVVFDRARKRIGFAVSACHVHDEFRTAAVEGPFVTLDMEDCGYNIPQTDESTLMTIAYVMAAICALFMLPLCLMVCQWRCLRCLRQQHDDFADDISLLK
Sequence of Beta-secretase 1 (Mus musculus, UniProt P56818) (P56818 whole entry): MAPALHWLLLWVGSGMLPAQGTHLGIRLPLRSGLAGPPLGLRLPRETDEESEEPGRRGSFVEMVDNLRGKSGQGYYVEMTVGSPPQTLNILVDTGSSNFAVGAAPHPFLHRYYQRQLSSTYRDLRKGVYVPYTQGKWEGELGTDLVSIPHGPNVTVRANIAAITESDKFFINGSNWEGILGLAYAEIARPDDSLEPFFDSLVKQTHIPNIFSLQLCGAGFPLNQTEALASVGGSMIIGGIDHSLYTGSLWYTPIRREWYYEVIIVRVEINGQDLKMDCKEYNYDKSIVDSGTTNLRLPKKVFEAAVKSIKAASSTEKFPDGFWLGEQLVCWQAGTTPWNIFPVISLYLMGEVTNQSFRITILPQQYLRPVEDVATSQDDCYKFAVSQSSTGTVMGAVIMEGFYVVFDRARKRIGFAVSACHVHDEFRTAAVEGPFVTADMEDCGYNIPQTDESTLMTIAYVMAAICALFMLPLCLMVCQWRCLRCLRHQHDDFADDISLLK
Sequence of Voltage-gated inwardly rectifying potassium channel KCNH2 (Q12809 whole entry): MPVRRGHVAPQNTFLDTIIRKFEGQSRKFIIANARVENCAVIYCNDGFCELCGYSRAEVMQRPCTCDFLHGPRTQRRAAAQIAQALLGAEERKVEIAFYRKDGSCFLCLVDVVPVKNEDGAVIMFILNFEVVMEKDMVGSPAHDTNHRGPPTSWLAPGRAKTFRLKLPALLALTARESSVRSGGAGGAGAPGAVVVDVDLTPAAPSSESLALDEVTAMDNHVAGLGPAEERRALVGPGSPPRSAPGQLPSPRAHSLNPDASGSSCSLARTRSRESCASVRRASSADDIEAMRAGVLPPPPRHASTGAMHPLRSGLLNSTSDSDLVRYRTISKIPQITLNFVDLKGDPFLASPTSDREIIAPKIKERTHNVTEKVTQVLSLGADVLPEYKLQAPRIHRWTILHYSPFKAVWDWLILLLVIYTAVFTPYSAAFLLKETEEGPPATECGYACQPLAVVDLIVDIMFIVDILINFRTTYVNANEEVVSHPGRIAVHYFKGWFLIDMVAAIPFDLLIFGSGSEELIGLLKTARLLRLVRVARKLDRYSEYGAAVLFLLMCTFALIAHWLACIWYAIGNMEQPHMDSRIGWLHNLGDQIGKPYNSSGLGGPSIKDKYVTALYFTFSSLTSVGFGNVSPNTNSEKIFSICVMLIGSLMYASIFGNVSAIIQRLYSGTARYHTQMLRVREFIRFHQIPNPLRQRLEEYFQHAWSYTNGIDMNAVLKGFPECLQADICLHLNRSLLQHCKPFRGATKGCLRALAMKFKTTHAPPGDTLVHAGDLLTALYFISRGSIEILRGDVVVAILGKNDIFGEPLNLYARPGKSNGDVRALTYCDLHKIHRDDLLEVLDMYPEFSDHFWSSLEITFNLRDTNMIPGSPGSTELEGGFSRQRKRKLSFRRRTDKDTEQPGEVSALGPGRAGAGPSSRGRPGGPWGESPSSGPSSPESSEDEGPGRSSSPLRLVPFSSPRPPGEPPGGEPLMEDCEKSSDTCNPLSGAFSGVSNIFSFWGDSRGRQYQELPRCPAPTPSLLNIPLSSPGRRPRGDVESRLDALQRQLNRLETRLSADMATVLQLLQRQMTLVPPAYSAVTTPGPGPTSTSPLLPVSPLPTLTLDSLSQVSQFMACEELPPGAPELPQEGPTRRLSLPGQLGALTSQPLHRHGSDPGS

NC1=NC(c2cccc(-c3cncnc3)c2)(c2ccnc(C(F)F)c2)c2cccc(F)c21 (racemic)
hepatocyte CLint (in vitro [1]): 27.5 µL/min/1e6 cells
pKa (physchem [2]): 6.8
logD (physchem [3]): 2

CCn1cc([C@]2(c3cccc(NC(=O)c4ccc(Cl)cn4)c3)N=C(N)c3c(F)cccc32)cc(C)c1=O
IC50 (Beta-secretase 1 [4]): 0.15 nM
IC50 (Beta-secretase 1 [5]): 2.49 nM

NC1=NC(c2ccncc2)(c2cccc(-c3cncnc3)c2)c2ccccc21 (stereo not drawn)
hepatocyte CLint (in vitro [1]): 11.7 µL/min/1e6 cells
efflux ratio at 1 h, 10 µM (in vitro [6]): 12
pKa (physchem [2]): 8.4
logD (physchem [3]): 0.7
IC50 (Beta-secretase 1 [4]): 90.3 nM
IC50 [7]: 16 µM
Papp A→B at 1 h, 10 µM (in vitro [8]): 3.4 ×10⁻⁶ cm/s

Cc1cc(C2(c3cccc(-c4cncnc4)c3)N=C(N)c3c(F)cccc32)cc(C)n1 (stereo not drawn)
IC50 (Beta-secretase 1 [4]): 10.7 nM
IC50 (Beta-secretase 1 [5]): 1380 nM

CC#Cc1cncc(-c2cccc([C@@]3(c4cc(C)c(=O)n(CC)c4)N=C(N)c4c(F)cc(F)cc43)c2)c1
IC50 (Beta-secretase 1 [4]): 0.38 nM
IC50 (Beta-secretase 1 [5]): 2.59 nM

NC1=N[C@@](c2cccc(-c3cncnc3)c2)(c2ccnc(C(F)F)c2)c2cc(F)cc(F)c21
IC50 (Beta-secretase 1 [9]): 53 nM
Ki (Beta-secretase 2): 770 nM
IC50 (Beta-secretase 1 [4]): 8.64 nM
IC50 (Beta-secretase 1 [5]): 36.2 nM

CCn1cc([C@]2(c3cccc(C#CC4CC4)c3)N=C(N)c3c(F)cccc32)cc(C)c1=O
IC50 (Beta-secretase 1 [9]): 3.4 nM
Ki (Beta-secretase 2): 78 nM
IC50 (Beta-secretase 1 [4]): 0.76 nM
IC50 (Beta-secretase 1 [5]): 6.08 nM

NC1=NC(c2ccncc2)(c2cccc(-c3cncc(F)c3)c2)c2cccc(F)c21 (stereo not drawn)
IC50 (Beta-secretase 1 [4]): 25.6 nM
IC50 (Beta-secretase 1 [5]): 137 nM

NC1=N[C@](c2ccncc2)(c2cccc(-c3cncnc3)c2)c2cccc(F)c21
IC50 (Beta-secretase 1 [9]): 68 nM
Ki (Beta-secretase 2): 790 nM
IC50 (Beta-secretase 1 [4]): 8.25 nM
IC50 (Beta-secretase 1 [5]): 124 nM

NC1=NC(c2ccncc2)(c2cccc(-c3cncnc3)c2)c2cccc(F)c21 (racemic)
IC50 (Beta-secretase 1 [4]): 11.4 nM
IC50 (Beta-secretase 1 [5]): 158 nM

COc1c(C)cc(C2(c3cccc(-c4cncnc4)c3)N=C(N)c3c(F)cccc32)cc1C#N (stereo not drawn)
hepatocyte CLint (in vitro [1]): 30.9 µL/min/1e6 cells
logD (physchem [3]): 3.1
IC50 (Beta-secretase 1 [4]): 3.4 nM
Papp A→B at 1 h, 10 µM (in vitro [8]): 23 ×10⁻⁶ cm/s

CCn1cc(C2(c3cccc(-c4cncnc4)c3)N=C(N)c3c(F)cccc32)cc(C)c1=O (stereo not drawn)
IC50 (Beta-secretase 1 [4]): 9.09 nM
IC50 (Beta-secretase 1 [5]): 15.5 nM
